In PubChem BioAssay (NCI):
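In this assay, cells in 96-well plates receive the compound at five concentrations for 48 hours. Endpoints are linearly interpolated between the surrounding concentrations. The concentration for 50% growth inhibition is given as GI50. TGI: total growth inhibition.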

Legend:
Assay in all cases: inhibition of tumour cell growth, NCI panel, 48 h
[1] = system: BT-549 breast
[2] = system: EKVX NSCLC
[3] = system: HL-60(TB) leukemia
[4] = system: MALME-3M melanoma
[5] = system: MDA-MB-435
[6] = system: RPMI-8226 leukemia
[7] = system: SF-268 CNS
[8] = system: SK-MEL-2 melanoma
[9] = system: T-47D breast
[10] = system: UACC-257 melanoma

SMILES: CC1CCCC(C(=O)CC2CC(=O)NC(=O)C2)C1=O (stereo not given)
- TGI [1]: > 100 µM
- TGI [2]: > 100 µM
- TGI [3]: > 100 µM
- TGI [4]: > 100 µM
- TGI [5]: > 100 µM
- TGI [6]: > 100 µM
- TGI [7]: > 100 µM
- TGI [8]: > 100 µM
- TGI [9]: > 100 µM
- TGI [10]: > 100 µM

SMILES: CCCCCCC1N=C(N)N=C(N)N1c1cccc(Cl)c1 (stereo not given)
- GI50 [1]: 0.506 µM
- TGI [1]: 14.5 µM
- GI50 [2]: 0.307 µM
- TGI [2]: 19.3 µM
- GI50 [3]: 1.14 µM
- TGI [3]: 10.7 µM
- GI50 [4]: 0.765 µM
- TGI [4]: 15.6 µM
- GI50 [5]: 0.0479 µM
- TGI [5]: 13.2 µM
- GI50 [6]: 0.904 µM
- TGI [6]: 22 µM
- GI50 [7]: 0.0591 µM
- TGI [7]: 11.5 µM
- GI50 [8]: 11.3 µM
- TGI [8]: 27.7 µM
- GI50 [9]: 6.19 µM
- TGI [9]: 23.1 µM
- GI50 [10]: 6.37 µM
- TGI [10]: 29.5 µM

SMILES: NC(=O)c1cccc2c(N[C@H](CN3CCC3)c3ccc(Cl)c(C(F)(F)F)c3)ncnc12
- GI50 [1]: 0.657 µM
- TGI [1]: 3.61 µM
- GI50 [2]: 0.878 µM
- TGI [2]: 10.3 µM
- GI50 [3]: 2.13 µM
- TGI [3]: 5.64 µM
- GI50 [4]: 0.399 µM
- TGI [4]: 1.85 µM
- GI50 [5]: 1.44 µM
- TGI [5]: 11.3 µM
- GI50 [6]: 2.69 µM
- TGI [6]: 9.06 µM
- GI50 [7]: 1.09 µM
- TGI [7]: 12.9 µM
- GI50 [8]: 1.96 µM
- TGI [8]: 9.74 µM
- GI50 [9]: 0.101 µM
- TGI [9]: 2.47 µM
- GI50 [10]: 1.22 µM
- TGI [10]: 5.27 µM

SMILES: COC(=O)Oc1nn(C(=O)OC)c(=O)c2ccccc12
- TGI [1]: > 100 µM
- TGI [2]: > 100 µM
- TGI [3]: > 100 µM
- TGI [4]: > 100 µM
- TGI [5]: > 100 µM
- TGI [6]: > 100 µM
- TGI [7]: > 100 µM
- TGI [8]: > 100 µM
- TGI [9]: > 100 µM
- TGI [10]: > 100 µM

SMILES: CN(C)C1CCN(Cc2ccc(NC(=O)c3cncc(C#Cc4cnc(N)c5ncccc45)c3)cc2C(F)(F)F)CC1
- GI50 [1]: 7.77 µM
- TGI [1]: 15.3 µM
- GI50 [2]: 8.46 µM
- TGI [2]: 18.7 µM
- GI50 [3]: 9.8 µM
- TGI [3]: 24.4 µM
- GI50 [4]: 0.828 µM
- TGI [4]: 1.65 µM
- GI50 [5]: 0.922 µM
- TGI [5]: 1.83 µM
- GI50 [6]: 4.31 µM
- TGI [6]: 17 µM
- GI50 [7]: 1.68 µM
- TGI [7]: 4.72 µM
- GI50 [8]: 8.02 µM
- TGI [8]: 19.8 µM
- GI50 [9]: 11.6 µM
- TGI [9]: 43.8 µM
- GI50 [10]: 1.43 µM
- TGI [10]: 3.97 µM

SMILES: COc1cc(-c2cc3ncccc3c3nc(OCCN(C)C)c4cccnc4c23)cc(OC)c1OC
- GI50 [1]: 0.665 µM
- TGI [1]: 3.19 µM
- GI50 [2]: 0.513 µM
- TGI [2]: 3.24 µM
- GI50 [3]: 1.25 µM
- TGI [3]: 4.73 µM
- GI50 [4]: 0.431 µM
- TGI [4]: 2.5 µM
- GI50 [5]: 0.671 µM
- TGI [5]: 3.75 µM
- GI50 [6]: 0.372 µM
- TGI [6]: 2.79 µM
- GI50 [7]: 0.637 µM
- TGI [7]: 11 µM
- GI50 [8]: 0.744 µM
- TGI [8]: 3.71 µM
- GI50 [9]: 0.769 µM
- TGI [9]: 37 µM
- GI50 [10]: 0.567 µM
- TGI [10]: 4.06 µM

SMILES: CN1CCN(C(=O)[C@@]2(C)CC[C@]3(C)CC[C@]4(C)C(=CC[C@@H]5[C@@]6(C)CCC(=O)NC(C)(C)[C@@H]6CC[C@]54C)[C@@H]3C2)CC1
- GI50 [1]: 1.58 µM
- TGI [1]: 3.28 µM
- GI50 [2]: 2.74 µM
- TGI [2]: 12.8 µM
- GI50 [3]: 1.87 µM
- TGI [3]: 3.87 µM
- GI50 [4]: 1.45 µM
- TGI [4]: 2.82 µM
- GI50 [5]: 1.62 µM
- TGI [5]: 3.3 µM
- GI50 [6]: 1.43 µM
- TGI [6]: 3.74 µM
- GI50 [7]: 3.04 µM
- TGI [7]: 14.4 µM
- GI50 [8]: 1.94 µM
- TGI [8]: 3.84 µM
- GI50 [9]: 1.62 µM
- TGI [9]: 4.21 µM
- GI50 [10]: 2.1 µM
- TGI [10]: 4.72 µM

SMILES: COc1cc(OC)cc(Oc2cnc3cc(N)cc(N)c3n2)c1
- GI50 [1]: 17.2 µM
- TGI [1]: 39.2 µM
- GI50 [2]: 18.5 µM
- TGI [2]: 46.2 µM
- GI50 [3]: 5.68 µM
- TGI [3]: 28 µM
- GI50 [4]: 10.7 µM
- TGI [4]: 22.5 µM
- GI50 [5]: 2.87 µM
- TGI [5]: 6.76 µM
- GI50 [6]: 24 µM
- TGI [6]: 53.7 µM
- GI50 [7]: 15.5 µM
- TGI [7]: 31.9 µM
- GI50 [8]: 19.7 µM
- TGI [8]: 43.3 µM
- GI50 [9]: 13.6 µM
- TGI [9]: 42.4 µM
- GI50 [10]: 18 µM
- TGI [10]: 33.7 µM

SMILES: CCc1ccccc1NC(=O)C(C#N)C1=C(Cl)C(=O)c2ccccc2C1=O (stereo not given)
- TGI [1]: 71.7 µM
- TGI [2]: 33.7 µM
- TGI [3]: 83.3 µM
- TGI [4]: 19.5 µM
- TGI [5]: 63 µM
- TGI [6]: 77.9 µM
- TGI [7]: 49.8 µM
- TGI [8]: 37.2 µM
- TGI [9]: 52.4 µM
- TGI [10]: 31.8 µM

SMILES: CCN1CCC(CC(=O)Nc2n[nH]c3nnc(-c4cccc(F)c4F)cc23)CC1
- GI50 [1]: > 25 µM
- TGI [1]: > 25 µM
- GI50 [2]: > 25 µM
- TGI [2]: > 25 µM
- GI50 [3]: > 25 µM
- TGI [3]: > 25 µM
- GI50 [4]: > 25 µM
- TGI [4]: > 25 µM
- GI50 [5]: > 25 µM
- TGI [5]: > 25 µM
- GI50 [6]: > 25 µM
- TGI [6]: > 25 µM
- GI50 [7]: > 25 µM
- TGI [7]: > 25 µM
- GI50 [8]: 16.9 µM
- TGI [8]: > 25 µM
- GI50 [9]: > 25 µM
- TGI [9]: > 25 µM
- GI50 [10]: > 25 µM
- TGI [10]: > 25 µM
